Results reported in PMC11831560, “Development of the Pyrido[2,3-d]pyrimidin-7(8H)-one Scaffold toward Potent and Selective NUAK1 Inhibitors” (ACS Medicinal Chemistry Letters, 2025).

How the values were obtained:
CDK6/D1 = tested on: CDK6/D1; design: method as in Reddy et al. 28; details: ref Reddy et al. 28; cited from earlier work
[1] = design: method as in PMID 24568969; details: mice, I.V. dosing 5 mgkg^–1; cited from earlier work
[2] = Microsomal stability, human; format: in vitro ADME; details: human liver microsomes; read-out: HLM t1/2
Procedure: All single point assay determinations carried out in duplicate.
ADMET and PK experimental methods
Microsomal stability: analysis was performed by Cyprotex Discovery. […]

CDK4/D1 = tested on: CDK4/D1; design: method as in Reddy et al. 28; details: ref Reddy et al. 28; cited from earlier work
PRAK = PRAK (Homo sapiens, UniProt Q8IW41); experiment: Kinase panel radiometric filter binding (33P-ATP); format: biochemical; design: dose or concentration left out as unconfirmed
PRAK, sequence (Q8IW41 whole entry): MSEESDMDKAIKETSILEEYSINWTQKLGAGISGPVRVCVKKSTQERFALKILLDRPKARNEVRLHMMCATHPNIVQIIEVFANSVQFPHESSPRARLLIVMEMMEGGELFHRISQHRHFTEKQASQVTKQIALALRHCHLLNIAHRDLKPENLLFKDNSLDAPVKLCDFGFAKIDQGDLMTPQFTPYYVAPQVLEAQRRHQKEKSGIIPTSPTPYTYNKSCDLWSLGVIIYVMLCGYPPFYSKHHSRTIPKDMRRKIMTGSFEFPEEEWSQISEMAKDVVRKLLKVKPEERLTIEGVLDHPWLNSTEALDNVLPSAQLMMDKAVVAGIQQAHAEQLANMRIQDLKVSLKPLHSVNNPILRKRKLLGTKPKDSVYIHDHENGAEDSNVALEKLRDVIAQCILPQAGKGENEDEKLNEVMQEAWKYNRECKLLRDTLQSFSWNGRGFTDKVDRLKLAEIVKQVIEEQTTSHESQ
In short: (§1)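 140-kinase general panel; radiometric filter binding, 33P-ATP; test compound 1 µM; % activity remaining ± s.d.; pIC50 determined only if <20% activity.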

Src = Src (Homo sapiens, UniProt P12931); experiment: Kinase panel radiometric filter binding (33P-ATP); format: biochemical; design: dose or concentration left out as unconfirmed
Src, sequence (P12931 whole entry): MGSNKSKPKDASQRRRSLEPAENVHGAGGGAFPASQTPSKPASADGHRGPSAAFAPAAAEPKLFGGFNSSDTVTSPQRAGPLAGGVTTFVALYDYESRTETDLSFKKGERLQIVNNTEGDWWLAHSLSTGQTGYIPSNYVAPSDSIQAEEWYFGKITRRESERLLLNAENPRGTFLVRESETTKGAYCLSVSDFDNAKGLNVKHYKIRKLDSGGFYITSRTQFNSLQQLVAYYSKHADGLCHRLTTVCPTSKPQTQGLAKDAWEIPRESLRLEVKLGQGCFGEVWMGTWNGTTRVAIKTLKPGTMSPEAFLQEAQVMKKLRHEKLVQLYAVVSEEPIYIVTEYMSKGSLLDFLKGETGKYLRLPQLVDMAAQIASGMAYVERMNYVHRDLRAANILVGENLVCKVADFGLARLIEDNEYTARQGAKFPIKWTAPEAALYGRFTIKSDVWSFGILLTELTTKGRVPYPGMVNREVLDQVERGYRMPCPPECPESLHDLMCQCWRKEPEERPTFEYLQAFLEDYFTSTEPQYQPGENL
In short: as §1

TBK1 = TBK1 (Homo sapiens, UniProt Q9UHD2); experiment: Kinase panel radiometric filter binding (33P-ATP); format: biochemical
TBK1, sequence (Q9UHD2 whole entry): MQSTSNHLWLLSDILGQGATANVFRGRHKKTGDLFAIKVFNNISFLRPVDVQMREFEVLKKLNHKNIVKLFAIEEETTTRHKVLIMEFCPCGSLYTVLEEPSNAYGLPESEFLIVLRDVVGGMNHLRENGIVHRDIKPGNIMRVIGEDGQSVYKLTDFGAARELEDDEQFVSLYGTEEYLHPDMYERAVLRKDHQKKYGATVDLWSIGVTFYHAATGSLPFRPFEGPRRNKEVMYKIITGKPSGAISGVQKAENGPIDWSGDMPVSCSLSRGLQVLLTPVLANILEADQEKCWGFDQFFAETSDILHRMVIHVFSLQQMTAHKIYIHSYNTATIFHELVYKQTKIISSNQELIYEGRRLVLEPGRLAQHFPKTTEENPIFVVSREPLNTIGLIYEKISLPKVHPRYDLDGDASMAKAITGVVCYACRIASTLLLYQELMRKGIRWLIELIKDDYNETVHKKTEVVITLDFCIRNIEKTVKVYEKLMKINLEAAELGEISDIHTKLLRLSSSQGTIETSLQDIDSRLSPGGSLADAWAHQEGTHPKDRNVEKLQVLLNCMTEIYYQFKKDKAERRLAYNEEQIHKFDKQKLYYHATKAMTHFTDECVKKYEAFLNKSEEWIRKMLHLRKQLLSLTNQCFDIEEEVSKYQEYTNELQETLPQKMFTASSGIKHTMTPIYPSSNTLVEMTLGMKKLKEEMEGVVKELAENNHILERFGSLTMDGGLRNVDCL
Procedure: (§2) Table S4: AMPKA kinase activity data (ADP-Glo assay)
(§3) Compound pIC50 (Fold selectivity
(§4) Table S5. Kinase selectivity screening for 9 and 24 at 1 µM against a general kinase panel of 140 targets
(§5) in radiometric filter binding assay using 33P-γ−ATP at the MRC PPU International Centre for Kinase
(§6) Profiling, University of Dundee. pIC50 values were determined for compounds with <20% activity
(§7) Kinase activity s.d. pIC50 activity s.d. pIC50

p38g MAPK = p38g MAPK (Homo sapiens, UniProt P53778); experiment: Kinase panel radiometric filter binding (33P-ATP); format: biochemical
p38g MAPK, sequence (P53778 whole entry): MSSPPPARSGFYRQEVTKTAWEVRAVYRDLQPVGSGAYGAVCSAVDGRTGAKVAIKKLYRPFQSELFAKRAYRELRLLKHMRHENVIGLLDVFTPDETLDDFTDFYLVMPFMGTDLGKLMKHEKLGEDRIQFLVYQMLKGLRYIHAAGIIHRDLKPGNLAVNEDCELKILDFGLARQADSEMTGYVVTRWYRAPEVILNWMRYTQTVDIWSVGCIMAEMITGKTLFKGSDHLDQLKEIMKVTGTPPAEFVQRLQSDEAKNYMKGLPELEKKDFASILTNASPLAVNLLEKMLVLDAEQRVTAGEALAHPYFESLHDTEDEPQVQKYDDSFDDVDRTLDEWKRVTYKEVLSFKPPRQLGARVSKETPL
Procedure: as §2, §3, §4, §5, §6, §7

TLK1 = TLK1 (Homo sapiens, UniProt Q9UKI8); experiment: Kinase panel radiometric filter binding (33P-ATP); format: biochemical
TLK1, sequence (Q9UKI8 whole entry): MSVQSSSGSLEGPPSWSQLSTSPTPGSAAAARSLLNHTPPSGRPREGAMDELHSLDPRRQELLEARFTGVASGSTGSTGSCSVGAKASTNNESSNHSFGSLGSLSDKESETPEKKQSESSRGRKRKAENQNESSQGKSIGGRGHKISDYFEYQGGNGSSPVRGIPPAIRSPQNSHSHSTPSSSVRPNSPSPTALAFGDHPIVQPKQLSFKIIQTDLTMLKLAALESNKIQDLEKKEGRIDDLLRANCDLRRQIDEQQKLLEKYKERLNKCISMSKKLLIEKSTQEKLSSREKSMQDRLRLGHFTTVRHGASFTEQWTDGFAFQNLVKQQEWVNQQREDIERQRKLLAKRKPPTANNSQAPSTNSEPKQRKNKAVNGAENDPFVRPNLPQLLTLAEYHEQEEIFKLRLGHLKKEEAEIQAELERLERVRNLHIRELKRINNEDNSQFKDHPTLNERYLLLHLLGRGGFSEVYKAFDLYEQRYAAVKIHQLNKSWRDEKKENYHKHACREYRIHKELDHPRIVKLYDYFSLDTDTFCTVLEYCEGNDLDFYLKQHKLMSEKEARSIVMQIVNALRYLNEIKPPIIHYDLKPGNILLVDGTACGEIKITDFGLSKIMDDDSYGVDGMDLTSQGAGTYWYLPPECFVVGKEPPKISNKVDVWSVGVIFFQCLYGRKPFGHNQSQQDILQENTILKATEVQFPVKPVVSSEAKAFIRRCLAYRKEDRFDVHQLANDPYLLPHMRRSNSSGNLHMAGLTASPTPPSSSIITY
Procedure: as §2, §3, §4, §5, §6, §7

Structure (SMILES)	CDK6/D1 pIC50 (CDK6/D1)	plasma half-life t1/2 [1] [h]	half-life at 1 µM [2] [min]	CDK4/D1 pIC50 (CDK4/D1)	% activity remaining (PRAK) [%]	% activity remaining (Src) [%]	% activity remaining (TBK1) [%]	% activity remaining (p38g MAPK) [%]	% activity remaining (TLK1) [%]
CN1CCN(c2ccc(Nc3ncc4cc(C#N)c(=O)n(C5CCCC5)c4n3)cc2)CC1 [Compound 3, Narazaciclib, reference compound]	8.0	1.5	6.9	8.4	–	–	–	–	–
CN1C2CC1CN(c1ccc(Nc3ncc4ccn(CC5CCOCC5)c4n3)cc1)C2 [Compound 24]	–	–	–	–	83	84	41	92	86
Cc1cc(=O)n(C2CCCC2)c2nc(Nc3ccc(N4CC5CC(C4)N5C)cc3)ncc12 [Compound 9]	–	–	–	–	99	53	66	97	59
